According to PubChem BioAssay (NCI):
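All cell lines were grown in 96-well plates and treated with compound for 48 hours. At the GI50, growth is halved. TGI is the concentration that stops growth completely.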

Tests used:
Test in all cases: inhibition of tumour cell growth, NCI panel, 48 h
IGROV1 ovarian = test system: IGROV1 ovarian
MOLT-4 leukemia = test system: MOLT-4 leukemia
RPMI-8226 leukemia = test system: RPMI-8226 leukemia
SK-MEL-2 melanoma = test system: SK-MEL-2 melanoma
SF-295 CNS = test system: SF-295 CNS
UACC-257 melanoma = test system: UACC-257 melanoma
HCT-15 colon = test system: HCT-15 colon
CCRF-CEM leukemia = test system: CCRF-CEM leukemia
SW-620 colon = test system: SW-620 colon
U251 CNS = test system: U251 CNS
DU-145 prostate = test system: DU-145 prostate
786-0 renal = test system: 786-0 renal
PC-3 prostate = test system: PC-3 prostate
TK-10 renal = test system: TK-10 renal
UACC-62 melanoma = test system: UACC-62 melanoma
SK-MEL-5 melanoma = test system: SK-MEL-5 melanoma
HL-60(TB) leukemia = test system: HL-60(TB) leukemia
OVCAR-4 ovarian = test system: OVCAR-4 ovarian
UO-31 renal = test system: UO-31 renal
HT29 colon = test system: HT29 colon
SK-MEL-28 melanoma = test system: SK-MEL-28 melanoma
KM12 colon = test system: KM12 colon
OVCAR-3 ovarian = test system: OVCAR-3 ovarian
NCI-H522 lung = test system: NCI-H522 lung
CAKI-1 renal = test system: CAKI-1 renal
MDA-MB-231 breast = test system: MDA-MB-231 breast
LOX IMVI melanoma = test system: LOX IMVI melanoma
HCC-2998 colon = test system: HCC-2998 colon
EKVX NSCLC = test system: EKVX NSCLC
SR leukemia = test system: SR leukemia
NCI/ADR-RES ovarian = test system: NCI/ADR-RES ovarian
SK-OV-3 ovarian = test system: SK-OV-3 ovarian
NCI-H23 lung = test system: NCI-H23 lung
BT-549 breast = test system: BT-549 breast
RXF 393 renal = test system: RXF 393 renal
NCI-H460 lung = test system: NCI-H460 lung
M14 melanoma = test system: M14 melanoma
ACHN renal = test system: ACHN renal
T-47D breast = test system: T-47D breast
A549 NSCLC = test system: A549 NSCLC
K-562 leukemia = test system: K-562 leukemia
HOP-62 NSCLC = test system: HOP-62 NSCLC
COLO 205 colon = test system: COLO 205 colon
A498 renal = test system: A498 renal
OVCAR-8 ovarian = test system: OVCAR-8 ovarian
HS 578T breast = test system: HS 578T breast
HCT-116 colon = test system: HCT-116 colon
SN12C renal = test system: SN12C renal
OVCAR-5 ovarian = test system: OVCAR-5 ovarian
HOP-92 NSCLC = test system: HOP-92 NSCLC
SNB-19 CNS = test system: SNB-19 CNS
SF-268 CNS = test system: SF-268 CNS
MCF7 breast = test system: MCF7 breast
SF-539 CNS = test system: SF-539 CNS
MDA-MB-435 = test system: MDA-MB-435
MALME-3M melanoma = test system: MALME-3M melanoma
NCI-H226 lung = test system: NCI-H226 lung

For `C/C(Cc1ccc(Cl)cc1)=C(\c1ccc(OCCN2CCCCCC2)cc1)c1ccc(OC(=O)c2ccccc2)cc1`, the GI50 (IGROV1 ovarian) was 2720 nM, the TGI (IGROV1 ovarian) was 10.3 µM and the GI50 (MOLT-4 leukemia) was 1290 nM. For the same compound, the TGI (MOLT-4 leukemia) was 5.95 µM, the GI50 (RPMI-8226 leukemia) was 1160 nM and the TGI (RPMI-8226 leukemia) was 3.28 µM. For the same compound, the GI50 (SK-MEL-2 melanoma) was 6.92 µM, the TGI (SK-MEL-2 melanoma) was 14 µM and the GI50 (SF-295 CNS) was 2270 nM. It also gave a TGI (SF-295 CNS) of 8.48 µM, a GI50 (UACC-257 melanoma) of 6.18 µM and a TGI (UACC-257 melanoma) of 13 µM. For the same compound, the GI50 (HCT-15 colon) was 1730 nM, the TGI (HCT-15 colon) was 7.53 µM and the GI50 (CCRF-CEM leukemia) was 1120 nM. The TGI (CCRF-CEM leukemia) was 3.79 µM, the GI50 (SW-620 colon) was 2520 nM and the TGI (SW-620 colon) was 9.7 µM. The GI50 (U251 CNS) was 2610 nM, the TGI (U251 CNS) was 8.96 µM and the GI50 (DU-145 prostate) was 4.26 µM. The TGI (DU-145 prostate) was 11.1 µM, the GI50 (786-0 renal) was 2990 nM and the TGI (786-0 renal) was 9.44 µM. The GI50 (PC-3 prostate) was 1700 nM, the TGI (PC-3 prostate) was 7.29 µM and the GI50 (TK-10 renal) was 6.03 µM. The TGI (TK-10 renal) was 13.3 µM, the GI50 (UACC-62 melanoma) was 1300 nM and the TGI (UACC-62 melanoma) was 3.9 µM. For the same compound, the GI50 (SK-MEL-5 melanoma) was 2300 nM, the TGI (SK-MEL-5 melanoma) was 8.48 µM and the GI50 (HL-60(TB) leukemia) was 1620 nM. For the same compound, the TGI (HL-60(TB) leukemia) was 9.03 µM, the GI50 (OVCAR-4 ovarian) was 1880 nM and the TGI (OVCAR-4 ovarian) was 8.51 µM. The GI50 (UO-31 renal) was 1390 nM, the TGI (UO-31 renal) was 7.3 µM and the GI50 (HT29 colon) was 1640 nM. It also gave a TGI (HT29 colon) of 5.75 µM, a GI50 (SK-MEL-28 melanoma) of 1150 nM and a TGI (SK-MEL-28 melanoma) of 2940 nM. It also gave a GI50 (KM12 colon) of 2360 nM, a TGI (KM12 colon) of 9.23 µM and a GI50 (OVCAR-3 ovarian) of 3.78 µM. The TGI (OVCAR-3 ovarian) was 10.2 µM, the GI50 (NCI-H522 lung) was 5.78 µM and the TGI (NCI-H522 lung) was 12.9 µM. For the same compound, the GI50 (CAKI-1 renal) was 3.08 µM, the TGI (CAKI-1 renal) was 10.6 µM and the GI50 (MDA-MB-231 breast) was 2150 nM. It also gave a TGI (MDA-MB-231 breast) of 8.22 µM, a GI50 (LOX IMVI melanoma) of 1250 nM and a TGI (LOX IMVI melanoma) of 3.22 µM. It also gave a GI50 (HCC-2998 colon) of 1380 nM, a TGI (HCC-2998 colon) of 3.53 µM and a GI50 (EKVX NSCLC) of 4.32 µM. The TGI (EKVX NSCLC) was 16.6 µM, the GI50 (SR leukemia) was 1250 nM and the TGI (SR leukemia) was 3.8 µM. For the same compound, the GI50 (NCI/ADR-RES ovarian) was 3.24 µM, the TGI (NCI/ADR-RES ovarian) was 11.3 µM and the GI50 (SK-OV-3 ovarian) was 5.8 µM. For the same compound, the TGI (SK-OV-3 ovarian) was 13.2 µM, the GI50 (NCI-H23 lung) was 4.69 µM and the TGI (NCI-H23 lung) was 12.6 µM. The GI50 (BT-549 breast) was 6.27 µM, the TGI (BT-549 breast) was 12.7 µM and the GI50 (RXF 393 renal) was 2490 nM. It also gave a TGI (RXF 393 renal) of 9.15 µM, a GI50 (NCI-H460 lung) of 1610 nM and a TGI (NCI-H460 lung) of 5.23 µM. For the same compound, the GI50 (M14 melanoma) was 1010 nM, the TGI (M14 melanoma) was 2360 nM and the GI50 (ACHN renal) was 5.77 µM. The TGI (ACHN renal) was 12.8 µM, the GI50 (T-47D breast) was 1430 nM and the TGI (T-47D breast) was 9.73 µM. The GI50 (A549 NSCLC) was 4.27 µM, the TGI (A549 NSCLC) was 12.6 µM and the GI50 (K-562 leukemia) was 1550 nM. The TGI (K-562 leukemia) was 5.88 µM, the GI50 (HOP-62 NSCLC) was 5.98 µM and the TGI (HOP-62 NSCLC) was 12.3 µM. It also gave a GI50 (COLO 205 colon) of 1710 nM, a TGI (COLO 205 colon) of 7.34 µM and a GI50 (A498 renal) of 5.37 µM. It also gave a TGI (A498 renal) of 11.4 µM, a GI50 (OVCAR-8 ovarian) of 2850 nM and a TGI (OVCAR-8 ovarian) of 9.35 µM. For the same compound, the GI50 (HS 578T breast) was 4.29 µM, the TGI (HS 578T breast) was 14.4 µM and the GI50 (HCT-116 colon) was 1340 nM. For the same compound, the TGI (HCT-116 colon) was 4.54 µM, the GI50 (SN12C renal) was 3.19 µM and the TGI (SN12C renal) was 10.3 µM. It also gave a GI50 (OVCAR-5 ovarian) of 4.64 µM, a TGI (OVCAR-5 ovarian) of 11.7 µM and a GI50 (HOP-92 NSCLC) of 1100 nM. The TGI (HOP-92 NSCLC) was 4.43 µM, the GI50 (SNB-19 CNS) was 5.29 µM and the TGI (SNB-19 CNS) was 14.6 µM. The GI50 (SF-268 CNS) was 3.03 µM, the TGI (SF-268 CNS) was 10.7 µM and the GI50 (MCF7 breast) was 358 nM. The TGI (MCF7 breast) was 6.92 µM, the GI50 (SF-539 CNS) was 5.18 µM and the TGI (SF-539 CNS) was 11.4 µM. For the same compound, the GI50 (MDA-MB-435) was 2650 nM, the TGI (MDA-MB-435) was 9.27 µM and the GI50 (MALME-3M melanoma) was 1760 nM. For the same compound, the TGI (MALME-3M melanoma) was 6.56 µM, the GI50 (NCI-H226 lung) was 8.45 µM and the TGI (NCI-H226 lung) was 17.5 µM.
